This experiment deals with CEM cells HIV-1 protection, formazan growth assay. The experiment can be described thus: NCI AIDS Antiviral Assay. Particulars: for IC50: measured here: growth of uninfected CEM cells. An outline of the steps: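 Protection of CEM cells against HIV-1 measured as cell growth via soluble formazan read-out, with five concentrations tested on both infected and uninfected cells; failure to protect may reflect toxicity.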

Each structure is given as a SMILES string. The source made the active and inactive calls.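 Rule for the calls: active = compounds giving half or more protection of infected cells from virus-caused growth loss, again on retest; inactive = the rest.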 A value given as a limit tells only on which side of the number the result lay.

As usually defined, the EC50 is the concentration needed to bring the measured effect to its halfway point. As usually defined, the IC50 is the concentration that gives 50% inhibition. The low end stands for greater potency in that assay, the high end for weaker potency in that assay. For `COc1cc(CO)c(-c2c(CO)cc(OC)c(OC)c2OC)c(OC)c1OC`, the EC50 was over 631 µM and the 50% inhibitory concentration (IC50) is over 631 µM.

In the case of `COc1ccc2c(c1)c1cc(OC)ccc1n2CCCCOc1ccc(-c2c3ccccc3c(-c3ccc(OCCCCn4c5ccc(OC)cc5c5cc(OC)ccc54)cc3)c3ccccc23)cc1`, the EC50 was over 1.55 µM and the IC50 was over 1.55 µM.

As for `CCSc1ccc(N=[N+]([O-])c2ccc(SCC)c(Cl)c2)cc1Cl`, the EC50 was over 50.1 µM and the half-inhibitory concentration (IC50) was over 50.1 µM.

On to `Cc1ccc2c(c1)C(C1Cc3c(C)cccc3C1=O)OC2=O` (stereo not drawn), for which the EC50 is over 200 µM and the IC50 was over 200 µM.

Consider `CCCCCCCCCCOCC(COCCOCC(COCCCCCCCCCC)OS(=O)(=O)O)OS(=O)(=O)O` (stereo not drawn), for which the EC50 was over 186 µM and the IC50 is 42.7 µM.

On to `C1CCCCC2(CCCCCCCCC3(CCC1)SCCS3)SCCS2`, for which the EC50 is over 200 µM and the IC50 was over 200 µM.

As for `C/C(=C1/CCCC2(N=NCC2c2ccccc2)C1=O)c1ccccc1` (stereo not drawn), the EC50 is over 8.32 µM and the half-inhibitory concentration (IC50) was over 8.32 µM.

Take `O=C(NCc1cccc(C(F)(F)F)c1)c1cc2sccc2nc1C(F)(F)F`: the EC50 was over 200 µM and the IC50 is over 200 µM.

As to `Cc1nc(N)nc2c1CCC(=O)N2`, the EC50 was over 56.2 µM and the IC50 is over 56.2 µM.

Consider `O=C1C[C@@]23CCC4(CC2CCC[C@H]3O1)OCCO4` (stereo partly drawn), for which the outcome was inactive.

Turning to `OC1CCN(Cc2ccccc2)C[C@@H]1CNC12CC3CC(CC(C3)C1)C2` (stereo partly drawn), the EC50 is over 100 µM and the half-inhibitory concentration (IC50) stood at 93.3 µM.

For the compound `CC(C)(C)C1COP(=O)(OCc2ccccc2)OC1` (stereo not drawn), the EC50 was over 631 µM and the IC50 is over 631 µM.

With `O=c1oc2ccccc2cc1-c1nc2ccccc2c(=O)[nH]1`, the EC50 is over 100 µM and the IC50 was over 100 µM.

Consider `CCCCCCCCC(O)c1ccc(/C=C\C(O)CCCC(=O)O)s1` (stereo not drawn), for which the EC50 is over 63.1 µM and the IC50 is over 63.1 µM.

For the compound `c1csc(-c2csc(-c3cccs3)c2)c1`, the EC50 is over 200 µM and the IC50 is 40.7 µM.

Regarding `Cc1ccc(S(=O)(=O)N/C(=C\C=C\c2ccccc2)C(=O)C(C)(C)C)cc1`, the 50% effective concentration (EC50) is 38.9 µM and the IC50 is 57.5 µM.

With `COc1cc(C)c(Br)c2ccc(Br)c(O)c12`, the EC50 is over 200 µM and the IC50 is over 200 µM.

For `O=c1oc2ccccc2[n+]([O-])c1-c1ccccc1`, the EC50 is over 1050 µM and the IC50 was over 1050 µM.

On to `C[n+]1c2ccccc2c(NCC(=O)O)c2ccccc21`, for which the outcome was inactive.

For the compound `CC12CP(=O)(O)CC1C2(Cl)Cl` (stereo not drawn), the EC50 is over 200 µM and the IC50 is over 200 µM.

For `CN1C(=O)[C@](O)(Cc2cccc(O)c2)N(C)C(=O)[C@@H]1Cc1c[nH]c2cccc([N+](=O)[O-])c12`, the result was inactive.

On to `CN1NC(c2ccccc2)=C(C#N)C(=O)CC1c1cccs1` (stereo not drawn), for which the EC50 was over 200 µM and the 50% inhibitory concentration (IC50) is over 200 µM.

In the case of `Cc1cc2c3c(c1)S(=O)(=O)c1cc(Cl)ccc1N3CCC2`, the EC50 was over 200 µM and the IC50 is over 200 µM.

With `CC(=O)C1=C(C)N2C(=NC3=C(CCc4ccccc43)C2c2ccc(Cl)cc2)S1` (stereo not drawn), the EC50 is over 200 µM and the IC50 came out at 18.6 µM.

Regarding `O=C(CCN1CCCC1)CC(c1ccccc1)c1c(O)c2ccccc2oc1=O` (stereo not drawn), the EC50 was over 91.2 µM and the concentration for half-maximal inhibition (IC50) is over 91.2 µM.

Turning to `CCOC(=O)C1=CN=C2C(=O)N(c3ccccc3)N(C)C2(C)C1=N` (stereo not drawn), the EC50 was over 200 µM and the 50% inhibitory concentration (IC50) is over 200 µM.

Regarding `CCS(CC)(CC)CC1CCCC2=CCC(P(=O)(c3ccccc3)c3ccccc3)CC21` (stereo not drawn), the EC50 was over 15.5 µM and the IC50 was over 15.5 µM.

With `COC(=O)c1ccc(C(=O)NC(Cc2ccc(Oc3cc(CC(NC(=O)c4ccccc4C(=O)OC)C(=O)OC)ccc3OC)cc2)C(=O)OC)cc1` (stereo not drawn), the EC50 is over 200 µM and the concentration for half-maximal inhibition (IC50) was 16.2 µM.

For the origin of these results see PubChem BioAssay AID179 (DTP/NCI, 2004).
